Entries after “also recorded” stand apart in the source; their conditions may differ.
What was measured:
Caco-2 cells = assay: SNAP treatment of Caco2 cells, IL-8 mRNA by qRT-PCR; assay type: cell-based, human; conditions: SNAP two sequential doses, 22 hours
Description: (§1) Day before SNAP (Sigma) treatment, Caco2 cells were cultured in working medium with MEM (Sigma) supplemented with 20% heat inactivated FCS (Biological Industries), ferric ammonium citrate (Sigma), non-essential amino acids (Gibco), sodium pyruvate (Gibco), L-glutamine (Biological Industries) and Pen.-strep. (Biological Industries) in an oxygen modified incubator (6% O2) at 37° C. and 5% CO2.
(§2) SNAP was added to the cells for 22 hours in two sequential doses 1 mM each. First dose was added for 6 hours, 20% of the medium was then collected and replaced with working medium containing 5 mM SNAP for additional incubation of […].
(§3) RNA was extracted using the Trizol reagent (Invitrogen). Cells were harvested directly with Trizol, whereas tissues were first ground in liquid-N2 cooled mortars then incubated with Trizol following manufacturer's instructions. Isolated RNA samples were submitted to DNase treatment using DNase I recombinant, RNase-free kit (Roche). cDNA was prepared using cDNA Reverse Transcription Kit (Quanta biosciences), and the RT-PCRs were performed using SYBR master mix (Applied Biosystems). The delta Ct method was used to calculate a relative expression of the target gene in comparison to topoisomerase 1 for epithelial cells and ubiquitin for macrophage genes.

Caco2 cells = assay: SNAP treatment of 55Fe labeled Caco2 cells, CPM in cells and medium; assay type: cell-based, human; conditions: SNAP induced Caco2 cells
Description: as §1, §2
Cells were given medium containing transferrin loaded with labeled iron. First labeled Ferric nitrilotriacetate (Fe-(NTA)2) was prepared, by mixing 5 parts of […] (pH=3) in 0.9% NaCl, with 4 parts of 100 mM of ferric chloride solution (FeCl3) in 0.1M HCl and one part of ^55Fe labeled ferric chloride solution (^55FeCl3). The mixture was incubated for 30 minutes at RT. Next, 125 parts of 1 mM human Apotransferrin (Kamada) solution in HBS was mixed with 12.5 parts of NaHCO3 and 10 parts of the labeled Ferric nitrilotriacetate (50 mM). The mixture was then added to the growth medium, 147.5 ul of labeled transferrin was added to 2 ml of growth medium. Cells were labeled with ^55Fe for ON. Then the medium was removed and cells were washed with PBS. […]

[1] = system: aconitase (IRP1 activation); assay: Tempol in ECs-Raw 264.7 co-culture, aconitase in-gel activity; assay type: cell-based; conditions: Tempol 3 mM, direct correlation with incubation time
Description: (§4) Day before co-culture assembly Caco2 cells were cultivated in an oxygen modified incubator (6% O2). Confluent co-cultures of epithelial cells and macrophages were obtained by seeding 2×10^5 cells per cm^2 surface area. Cell culture dishes employed were 10 cm or 6 well. For Caco2-Raw 264.7 co-cultures, Caco2 cells were seeded, after adherence Raw264.7 cells were added accordingly. For Caco2-BMDM co-cultures, on the six day of bone marrow extraction the cells were plated as previously mentioned, and Caco2 cells were added to them accordingly. Co-cultures were cultivated in an oxygen modified incubator (6% O2) at 37° C. and 5% CO2. Co-culture ratios used were 1:1 or 2:1 or 1:2.
Mitochondrial and cytosolic aconitase activities were assayed in parallel in cell lysates after electrophoretic separation as previously described [Tong et al. Cell metabolism 3, 199-210 (2006)]. Protein concentrations were determined using the Bradford assay (BIO-RAD, Hercules, California). Aconitase activity was detected chromogenically by incubating the gels in 100 mM Tris pH 8, 1 mM NADP, 2.5 mM cis-aconitic acid, 1.2 mM 3-(4,5-dimethylthiazol-2-yl)-2,5-diphenyl tetrazolium bromide, 0.3 mM phenazine methosulfate, 5 mM MgCl2 and 5 Units/ml isocitrate dehydrogenase. All chemicals were purchased from Sigma Missouri.

ECs-Raw 264.7 co-culture = assay: Tempol in ECs-Raw 264.7 co-culture, pro-inflammatory markers by RTqPCR; assay type: cell-based, human and mouse; conditions: Tempol 3 mM alone, different times, no LPS
Description: as §4, §3

[2] = system: epithelial pro-inflammatory markers (Caco2 cells); assay: Pre-conditioning of Caco2 cells with tempol, then Raw 264.7 cells and LPS, qRT-PCR; assay type: cell-based, human; conditions: tempol 3 mM 16 hours pre-conditioning, then Raw 264.7 and LPS 6 hours
Description: Representative SDS-PAGE gels of subcellular fractions, cytosolic nuclear soluble and nuclear chromatic bound fractions (upper). Protein levels were quantified with Image J (lower), values presented as mean±SD. n=4. * DFO 100 Um for 24 hours. C-E. Co-culture of epithelial cells and macrophages with targeted deletion of IRP1 (MΦ Irp1^−/−) didn't restore iron homeostasis in the co-culture upon LPS stimulation. Epithelial cells were co-cultured with BMDM isolated from C57BL/6 mice (MΦ wt) or from IRP^−/− on C57BL/6 background mice (MΦ Irp1^−/−) as described. LPS 200 ng/ml was added for 24 hours. […] Representative immunoblot of FtH. n=8. […] Representative blot of IRP2. n=8. E. Aconitase activities were decreased in epithelial cells and macrophages in EC-MΦ wt and EC-MΦ Irp1^−/− co-cultures. Representative aconitase in-gel assay. n=4. […] Caco2 cells were cultured with tempol (3 mM) for 16 hours, cells were then washed, and Raw 264.7 cells were added. When Raw 264.7 cells were adhered, the excess of cells was washed away and LPS was added for 6 hours. Expression levels were measured by qRT-PCR. n=6.
RNA was extracted using the Trizol reagent (Invitrogen). Cells were harvested directly with Trizol, whereas tissues were first ground in liquid-N2 cooled mortars then incubated with Trizol following manufacturer's instructions. […]

SMILES | IL-8 mRNA expression levels / inflammatory response in Caco-2 cells alone (Caco-2 cells) | intracellular iron (Caco2 cells; 55Fe CPM in the cells) | extracellular iron (Caco2 cells; 55Fe CPM in the medium) | aconitase activities [1] | transcription levels of pro-inflammatory markers / inflammatory response (ECs-Raw 264.7 co-culture) | expression levels of selected epithelial pro-inflammatory markers [2]
CC(=O)N[C@H](C(=O)O)C(C)(C)SN=O (racemic) [SNAP, S-Nitroso-N-Acetylpenicillamine] | showed an inflammatory response; also recorded: elevated | reduced | increased | – | – | –
CC1(C)CC(O)CC(C)(C)N1[O] [tempol] | – | – | – | decreased | did not elicit any inflammatory response; also recorded: increased trend that was not statistically significant | significantly increased
